Where two headings read alike, the source gives them in different places.

A short description of data set [1]: Stability in human liver microsomes without and with cimetidine or furafylline (Example 4). The note with it: human liver microsomes, largest effect over concentrations tested. The data set is classed as in vitro ADME. On the procedure:
A minus cofactor control incubation was included for each compound tested where 0.1 M phosphate buffer pH 7.4 was added instead of NADPH (minus NADPH). […] The samples were analysed for mebendazole or phenacetin using LC-MS/MS.
A minus cofactor control incubation was included for each compound tested where 0.1 M phosphate buffer pH 7.4 was added instead of cofactor (minus NADPH). […] The samples were analysed for mebendazole or phenacetin using LC-MS/MS.
(Liver microsomes are vesicles of endoplasmic reticulum, rich in cytochrome P450 enzymes.)

For data set [2], the system named is human cryopreserved hepatocytes. Kind of data set: Stability in human cryopreserved hepatocytes without and with cimetidine or furafylline (Example 5). The data set is classed as in vitro ADME. The conditions noted are these: human hepatocytes, largest effect over concentrations tested. On the procedure:
The final incubation volume was 500 μL. Two control compounds were included with each species, alongside appropriate vehicle control.
The samples were analysed for mebendazole or ethoxycoumarin using LC-MS/MS.
The final incubation volume was 500 μL.
A positive control compound, ethoxycoumarin, for CYP1A2 was included. […] The samples were analysed for mebendazole or ethoxycoumarin using LC-MS/MS.

Data set [3] has the same test system.
Experimental: (§3) Mebendazole (1 μM) was incubated with cryopreserved human hepatocytes for 60 min in the absence and presence of cimetidine at 30, 100 and 300 μM) and thiabendazole at 10, 30 and 100 μM and samples taken at the required time points. The amount of test compound remaining at each time point was analysed by LC-MS/MS. Appropriate control compounds were also incubated along with ethoxycoumarin, which was incubated in the absence and presence of cimetidine and thiabendazole.
(§4) The final incubation volume was 500 μL. Two control compounds were included, alongside appropriate vehicle control. A positive control compound, ethoxycoumarin, for CYP1A2 was included. The positive control compound was incubated without inhibitor and in the presence of each inhibitor. The reactions were stopped by transferring 50 μL of incubate to 100 μL acetonitrile containing internal standard at the appropriate time points (0, 5, 10, 20, 40 and 60 min). The termination plates were centrifuged at 2500 rpm at 4° C. for 30 min to precipitate the protein.
The target in data set [4] is CYP1A2 (Homo sapiens, UniProt P05177). The note with it: cited from earlier work.
A further data set has as its target CYP2D6 (Homo sapiens, UniProt P10635). Kind of data set: Cytochrome P450 reaction phenotyping, recombinant CYP2D6 (Bactosomes). The note with it: human, recombinant enzyme, pH 7.4. On the procedure: (§1) Incubations were also performed using control Bactosomes™ (no P450 enzymes present) to reveal any non-enzymatic degradation. Control compounds known to be metabolised specifically by each P450 isoform were included. All incubations were performed singularly for each test compound.
(§2) Incubations were also performed using control Bactosomes™ (no P450 enzymes present) to reveal any non-enzymatic degradation. Control compounds known to be metabolised specifically by each P450 isoform were included. All incubations were performed singularly for each test compound. […] The reactions were stopped by transferring an aliquot of incubate to quench solvent at the appropriate time points, in a 1:3 ratio. The termination plates were centrifuged at 3,000 rpm for 20 min at 4° C. to precipitate the protein.

Data set [5] can be described thus: Ricobendazole microsomal metabolic stability without and with cimetidine or furafylline (Example 8). Type of data set: in vitro ADME. The conditions noted are these: human, liver microsomes; for half-life at 0.1 μM: read-out: t½. The protocol: Incubation in the absence of NADPH was also performed to assess non-CYP mediated stability. Appropriate control compounds were also incubated.
A minus cofactor control incubation was included for each compound tested where 0.1 M phosphate buffer pH 7.4 was added instead of NADPH (minus NADPH). […] A control compound (phenacetin) was included (incubated without and with inhibitors as described above). All incubations were performed singularly for each test compound. Each incubation was carried out for 0, 5, 15, 30 and 45 min. The control (minus NADPH) was incubated for 45 min only.

Another data set has as its target T1, CYP2C8 (Homo sapiens, UniProt P10632).
T1 sequence (P10632 1-490): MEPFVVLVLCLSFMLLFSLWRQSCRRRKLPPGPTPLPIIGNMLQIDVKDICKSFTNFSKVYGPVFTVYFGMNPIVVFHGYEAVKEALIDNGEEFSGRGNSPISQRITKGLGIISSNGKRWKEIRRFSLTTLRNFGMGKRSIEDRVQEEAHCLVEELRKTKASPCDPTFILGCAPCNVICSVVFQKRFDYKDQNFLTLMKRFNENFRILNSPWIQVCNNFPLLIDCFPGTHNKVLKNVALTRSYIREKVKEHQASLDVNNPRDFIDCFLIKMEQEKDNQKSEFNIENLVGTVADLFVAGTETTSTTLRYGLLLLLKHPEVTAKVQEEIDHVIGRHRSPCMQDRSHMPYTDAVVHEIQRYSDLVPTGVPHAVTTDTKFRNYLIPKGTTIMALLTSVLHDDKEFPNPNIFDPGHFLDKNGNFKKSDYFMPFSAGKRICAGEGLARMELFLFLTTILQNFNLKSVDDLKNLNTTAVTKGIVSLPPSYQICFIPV
Kind of data set: Cytochrome P450 reaction phenotyping, recombinant CYP2C8 (Bactosomes). The conditions noted are these: CYP2C8, substrate 1 μM. The protocol:
as §1, §2

The next data set deals with T2, CYP2B6 (Homo sapiens, UniProt P20813).
T2 sequence (P20813 1-491): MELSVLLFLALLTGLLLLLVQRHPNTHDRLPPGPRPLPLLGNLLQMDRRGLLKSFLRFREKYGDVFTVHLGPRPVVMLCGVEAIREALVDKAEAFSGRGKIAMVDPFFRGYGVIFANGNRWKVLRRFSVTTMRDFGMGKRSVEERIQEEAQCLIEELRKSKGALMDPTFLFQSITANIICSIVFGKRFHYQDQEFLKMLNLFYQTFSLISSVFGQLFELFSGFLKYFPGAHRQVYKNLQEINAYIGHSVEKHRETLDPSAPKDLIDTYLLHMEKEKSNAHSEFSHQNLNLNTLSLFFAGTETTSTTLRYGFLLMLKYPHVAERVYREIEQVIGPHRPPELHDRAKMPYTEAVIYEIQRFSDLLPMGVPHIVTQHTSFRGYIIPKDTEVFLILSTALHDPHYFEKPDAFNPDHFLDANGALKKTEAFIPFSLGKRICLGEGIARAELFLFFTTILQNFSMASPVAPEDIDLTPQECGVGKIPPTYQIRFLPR
Kind of data set: Cytochrome P450 reaction phenotyping, recombinant CYP2B6 (Bactosomes). The note with it: CYP2B6, substrate 1 μM. The protocol:
as §1, §2

In data set [6] the target is T3, CYP1A2 (Homo sapiens, UniProt P05177).
T3 sequence (P05177 1-516): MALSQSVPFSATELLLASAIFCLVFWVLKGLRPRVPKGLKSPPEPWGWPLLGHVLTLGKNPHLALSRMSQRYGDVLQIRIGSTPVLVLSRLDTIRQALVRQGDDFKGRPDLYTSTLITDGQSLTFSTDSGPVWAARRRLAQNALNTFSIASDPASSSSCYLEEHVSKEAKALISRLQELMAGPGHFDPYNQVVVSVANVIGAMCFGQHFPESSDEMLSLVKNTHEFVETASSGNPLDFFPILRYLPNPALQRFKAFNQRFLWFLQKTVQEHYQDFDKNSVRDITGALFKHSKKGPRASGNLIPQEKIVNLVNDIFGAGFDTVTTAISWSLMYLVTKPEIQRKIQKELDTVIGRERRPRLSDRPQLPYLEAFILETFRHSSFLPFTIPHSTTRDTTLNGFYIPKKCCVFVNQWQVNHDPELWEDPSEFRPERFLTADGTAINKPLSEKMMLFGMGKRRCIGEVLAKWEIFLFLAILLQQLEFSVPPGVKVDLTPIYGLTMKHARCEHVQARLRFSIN
Kind of data set: Cytochrome P450 reaction phenotyping, recombinant CYP1A2 (Bactosomes). On the procedure:
as §1, §2

The next data set addresses CYP2C9 (Homo sapiens, UniProt P11712). Kind of data set: Cytochrome P450 reaction phenotyping, recombinant CYP2C9 (Bactosomes). The note with it: human, recombinant enzyme, pH 7.4. On the procedure:
as §1, §2

Another data set concerns the target CYP3A4 (Homo sapiens, UniProt P08684). Kind of data set: Cytochrome P450 reaction phenotyping, recombinant CYP3A4 (Bactosomes). The conditions noted are these: human, recombinant enzyme, pH 7.4. The protocol: as §1, §2
The next data set concerns the target CYP2C19 (Homo sapiens, UniProt P33261). Kind of data set: Cytochrome P450 reaction phenotyping, recombinant CYP2C19 (Bactosomes). The conditions noted are these: human, recombinant enzyme, pH 7.4. On the procedure:
as §1, §2

In data set [7] the test system is human cryopreserved hepatocytes. Kind of data set: Stability in human cryopreserved hepatocytes without and with cimetidine or thiabendazole (Example 6). The note with it: human hepatocytes, largest effect over concentrations tested.
Experimental: as §3, §4
For data set [8] the test system is unchanged. The note with it: for reduction of metabolism of mebendazole: initial experiments.
Experimental: (§5) The amount of test compound remaining at each time point was analysed by LC-MS/MS. Appropriate control compounds were also incubated.
(§6) The final incubation volume was 500 μL. Appropriate control compounds were included, alongside appropriate vehicle control.
(§7) The reactions were stopped by transferring 50 μL of incubate to 100 μL acetonitrile containing internal standard at the appropriate time points (0, 5, 10, 20, 40 and 60 min). The termination plates were centrifuged at 2500 rpm at 4° C. for 30 min to precipitate the protein.
The nature of the next data set: in vitro. The conditions noted are these: human, cryopreserved hepatocytes, probe mebendazole 1 µM (intrinsic clearance).
Data set [9] deals with human cryopreserved hepatocytes. This is another data set of the same source.
Experimental: as §5, §6, §7
In a further data set the target is human BCRP transporter (Homo sapiens, UniProt Q9UNQ0). The note with it: Caco-2.
Chain of human BCRP transporter (Q9UNQ0 whole entry): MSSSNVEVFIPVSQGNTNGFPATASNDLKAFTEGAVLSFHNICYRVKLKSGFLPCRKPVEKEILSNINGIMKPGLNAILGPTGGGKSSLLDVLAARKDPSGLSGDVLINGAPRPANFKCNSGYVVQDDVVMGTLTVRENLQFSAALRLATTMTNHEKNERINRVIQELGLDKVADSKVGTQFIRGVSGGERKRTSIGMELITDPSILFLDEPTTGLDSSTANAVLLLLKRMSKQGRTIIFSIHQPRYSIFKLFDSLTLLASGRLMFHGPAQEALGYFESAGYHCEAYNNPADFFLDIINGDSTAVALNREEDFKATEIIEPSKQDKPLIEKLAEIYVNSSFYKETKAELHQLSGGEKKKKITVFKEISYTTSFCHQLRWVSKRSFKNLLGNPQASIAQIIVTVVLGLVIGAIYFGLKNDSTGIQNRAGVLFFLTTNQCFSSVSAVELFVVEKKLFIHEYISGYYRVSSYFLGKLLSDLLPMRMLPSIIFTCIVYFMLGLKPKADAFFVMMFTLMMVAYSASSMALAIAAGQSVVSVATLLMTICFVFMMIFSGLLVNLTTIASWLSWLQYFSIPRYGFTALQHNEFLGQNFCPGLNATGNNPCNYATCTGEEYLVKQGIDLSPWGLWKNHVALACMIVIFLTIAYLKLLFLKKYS

Chain of CYP2D6 (P10635 whole entry, canonical isoform): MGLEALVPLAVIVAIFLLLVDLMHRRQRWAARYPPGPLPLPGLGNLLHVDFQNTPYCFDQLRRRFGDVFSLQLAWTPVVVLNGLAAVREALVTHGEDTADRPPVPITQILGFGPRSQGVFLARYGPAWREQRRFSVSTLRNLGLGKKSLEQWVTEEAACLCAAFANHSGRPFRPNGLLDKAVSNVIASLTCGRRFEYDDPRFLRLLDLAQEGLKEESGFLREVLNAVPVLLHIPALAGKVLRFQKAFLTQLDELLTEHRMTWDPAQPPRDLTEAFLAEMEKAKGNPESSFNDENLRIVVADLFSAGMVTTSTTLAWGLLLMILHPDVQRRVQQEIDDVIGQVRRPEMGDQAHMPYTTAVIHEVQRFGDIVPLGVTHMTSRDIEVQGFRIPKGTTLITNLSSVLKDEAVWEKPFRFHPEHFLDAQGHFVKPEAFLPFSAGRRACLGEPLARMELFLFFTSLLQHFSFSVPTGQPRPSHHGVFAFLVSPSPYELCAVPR
Chain of CYP2C9 (P11712 whole entry): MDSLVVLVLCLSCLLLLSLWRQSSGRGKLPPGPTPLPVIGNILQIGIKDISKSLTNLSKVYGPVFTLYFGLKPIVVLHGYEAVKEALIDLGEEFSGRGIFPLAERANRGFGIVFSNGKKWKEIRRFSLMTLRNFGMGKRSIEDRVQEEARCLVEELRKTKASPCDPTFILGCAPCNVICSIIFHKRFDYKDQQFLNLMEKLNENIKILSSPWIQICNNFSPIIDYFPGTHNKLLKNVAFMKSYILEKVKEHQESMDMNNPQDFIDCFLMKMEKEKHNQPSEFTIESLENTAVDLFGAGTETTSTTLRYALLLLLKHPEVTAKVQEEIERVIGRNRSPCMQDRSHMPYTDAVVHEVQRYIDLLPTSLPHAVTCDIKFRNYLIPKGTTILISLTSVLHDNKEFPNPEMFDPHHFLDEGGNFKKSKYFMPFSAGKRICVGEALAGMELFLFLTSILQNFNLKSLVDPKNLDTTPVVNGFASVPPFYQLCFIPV
Chain of CYP3A4 (P08684 whole entry): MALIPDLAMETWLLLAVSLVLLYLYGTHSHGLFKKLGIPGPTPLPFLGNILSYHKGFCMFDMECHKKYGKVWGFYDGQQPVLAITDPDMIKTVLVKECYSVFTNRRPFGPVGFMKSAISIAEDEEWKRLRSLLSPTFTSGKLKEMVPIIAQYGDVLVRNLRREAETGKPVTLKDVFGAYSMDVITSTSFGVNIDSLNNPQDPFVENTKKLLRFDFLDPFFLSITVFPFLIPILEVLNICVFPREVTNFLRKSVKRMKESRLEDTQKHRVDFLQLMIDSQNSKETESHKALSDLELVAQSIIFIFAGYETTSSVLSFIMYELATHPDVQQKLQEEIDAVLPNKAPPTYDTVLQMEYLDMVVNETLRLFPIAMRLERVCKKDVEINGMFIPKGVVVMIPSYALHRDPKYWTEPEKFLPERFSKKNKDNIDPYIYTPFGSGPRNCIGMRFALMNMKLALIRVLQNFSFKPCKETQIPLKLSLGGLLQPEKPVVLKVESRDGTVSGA
Chain of CYP2C19 (P33261 whole entry): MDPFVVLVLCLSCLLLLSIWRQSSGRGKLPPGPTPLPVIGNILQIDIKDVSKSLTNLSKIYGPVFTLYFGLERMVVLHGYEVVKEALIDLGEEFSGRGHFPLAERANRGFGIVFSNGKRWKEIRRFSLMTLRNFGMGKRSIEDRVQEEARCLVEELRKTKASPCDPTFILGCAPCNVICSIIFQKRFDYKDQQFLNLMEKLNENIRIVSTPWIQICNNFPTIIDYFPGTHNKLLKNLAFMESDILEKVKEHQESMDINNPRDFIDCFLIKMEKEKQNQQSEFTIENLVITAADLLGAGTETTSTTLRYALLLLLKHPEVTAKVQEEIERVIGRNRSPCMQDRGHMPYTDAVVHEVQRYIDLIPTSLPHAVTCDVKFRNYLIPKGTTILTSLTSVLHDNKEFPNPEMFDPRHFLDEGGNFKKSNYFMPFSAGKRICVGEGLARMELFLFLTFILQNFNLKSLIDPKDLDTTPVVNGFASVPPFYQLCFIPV
Text for human BCRP transporter: Bidirectional apparent permeability of test compound was quantified by LC-MS/MS and used to determine an efflux ratio.
Experimental for in vitro: as §5, §6, §7

In the case of `Cc1nc2c([nH]1)c(=O)n(C)c(=O)n2Cc1ccco1` [Furafylline], the “inhibition of intrinsic clearance of mebendazole” value (shortened to “inhibition … of mebendazole”) in data set [1] amounted to 99%; in data set [2], 89%. Moreover, the “decrease of mebendazole metabolism in presence of the inhibitor” value (shortened to “decrease … of the inhibitor”) in data set [2] turned out to be 9.1 fold.

Regarding `c1ccc2[nH]c(-c3cscn3)nc2c1` [Thiabendazole], in data set [3], the “decrease … of the inhibitor” value is 6.4 fold and the “inhibition … of mebendazole” value stood at 84%. In addition, on CYP1A2 [4] (read-out: IC50 value for CYP1A2 inhibition), the IC50 – broadly, the concentration that inhibits the measured activity by half – is 830 nM. Further, the Ki (commonly a measure of affinity in units of concentration, obtained from inhibition or displacement) at CYP1A2 [4] (read-out: inhibition constant (Ki) value for CYP1A2 inhibition) is 1540 nM.

With `CCC[S+]([O-])c1ccc2[nH]c(NC(=O)OC)nc2c1` (centres unmarked) [Ricobendazole, albendazole sulphoxide], the half-life at 1 μM on CYP2D6 came to 7.75 ± 4.55 h; at CYP1A2 [6] (human, recombinant enzyme, pH 7.4), 4 ± 0.635 h; on CYP2C9 it was 4.53 ± 2.67 h; at CYP3A4, 8.15 ± 11.4 h; at CYP2C19, 10.3 ± 10.8 h. The microsomal CLint at 0.1 μM was determined as 3.15 ± 1.24 µL/min/mg in data set [5] (pH 7.4, with cimetidine 30 μM, 0.1 μM, 1 mg/mL, cimetidine 30 μM, read-out: CLint); 3.43 ± 1.56 µL/min/mg in data set [5] (pH 7.4, with cimetidine 100 μM, 0.1 μM, 1 mg/mL, cimetidine 100 μM, read-out: CLint); 3.54 ± 1.09 µL/min/mg in data set [5] (pH 7.4, with cimetidine 300 μM, 0.1 μM, 1 mg/mL, cimetidine 300 μM, read-out: CLint); 1.27 ± 2.47 µL/min/mg in data set [5] (pH 7.4, with furafylline 3 μM, read-out: CLint); 4.31 ± 2.48 µL/min/mg in data set [5] (pH 7.4, with furafylline 10 μM, read-out: CLint); 2.92 ± 1.75 µL/min/mg in data set [5] (pH 7.4, with furafylline 30 μM, read-out: CLint). For the same compound, the microsomal CLint at 0.1 μM in data set [5] (pH 7.4, 0.1 μM, 1 mg/mL, no inhibitor, read-out: CLint) was found to be 2.83 ± 1.76 µL/min/mg; in data set [5] (optimisation, 0.1 μM and 1 mg/mL protein, read-out: intrinsic clearance), 6.63 ± 1.84 µL/min/mg. Also, the half-life at 0.1 μM in data set [5] (pH 7.4, with cimetidine 30 μM, 0.1 μM, 1 mg/mL, cimetidine 30 μM) came to 3.67 h; in data set [5] (pH 7.4, with cimetidine 100 μM, 0.1 μM, 1 mg/mL, cimetidine 100 μM), 3.37 h; in [5] (pH 7.4, with cimetidine 300 μM, 0.1 μM, 1 mg/mL, cimetidine 300 μM), 3.27 h; in data set [5] (pH 7.4, with furafylline 3 μM), 9.08 h; in [5] (pH 7.4, with furafylline 10 μM), 2.68 h; in [5] (pH 7.4, with furafylline 30 μM), 3.95 h. In addition, the half-life at 0.1 μM in data set [5] (pH 7.4, 0.1 μM, 1 mg/mL, no inhibitor) worked out at 4.08 h. Further, the microsomal CLint at 1 μM in [5] (optimisation, 1 μM and 0.5 mg/mL protein, read-out: intrinsic clearance) came out at 4.39 ± 2.77 µL/min/mg. The “metabolism by recombinant enzyme” value on CYP2C8 and on CYP2B6 was “not metabolised” each time. Also, at CYP1A2 [6] (CYP1A2, substrate 1 μM, 45 min), the “% remaining” value came to 85%.

Take `CN/C(=N/CCSCc1nc[nH]c1C)NC#N` [Cimetidine]: the “inhibition … of mebendazole” value is reported as 32% in data set [1], 19% in [7] and 25% in data set [2]. Besides, the figures for the “decrease … of the inhibitor” value in data set [7] and in data set [2] were 1.2 fold and 1.3 fold, respectively. In addition, in [8] (in the presence of cimetidine (30-300 μM)), the “effect on metabolism of mebendazole” value was “not decreased”.

Consider `COCCCC/C(=N\OCCN)c1ccc(C(F)(F)F)cc1` [Fluvoxamine], for which 10 µM produced 95% inhibition in “in vitro”. Further, the “reduction of metabolism of mebendazole” value in [8] (at 30 μM fluvoxamine) is listed as 2.3 fold; in data set [9] (fluvoxamine 10 to 300 μM, maximum as seen at 10 μM), “up to 20.2 fold”.

As to `Cc1cccc(C)c1OCC(C)N` (centres unmarked) [Mexiletine], the inhibition (commonly how much of the control response was suppressed) at 30 µM in “in vitro” is 87%. Moreover, the “reduction of metabolism of mebendazole” value in [8] (at 10 μM mexiletine) is reported as 2.7 fold; in [9] (mexiletine 10 to 300 μM, maximum as seen at 30 μM) it was “up to 7.8 fold”.

As for `C[C@]12CC[C@@H]3c4ccc(OS(=O)(=O)O)cc4CC[C@H]3[C@@H]1CCC2=O` [Estrone-3-sulfate], on human BCRP transporter, the “efflux ratio (ER) of positive control substrate” value was found to be 128.

Source of the values: patent publication US20220125765A1, “PHARMACEUTICAL COMBINATIONS COMPRISING MEBENDAZOLE AND A STRONG OR MODERATE CYP1A2 INHIBITOR” (ZEPHAPHARM LTD, priority 2019, published 2022).
